Data as given in US6011000A, “Compositions for the treatment of blood disorders” (priority 1995, dated 2000).

Assays:
MCF-7 cells = experiment: Growth/viability of human mammary carcinoma cells; format: cell-based; settings: MCF7, 96 h, 4 days, read-out: growth decrease of MCF-7 cells
Procedure: Human mammary carcinoma cells (MCF-7) were cultured alone (controls) and with arginine butyrate or isobutyramide for 4 days. Viability was assayed by FACS after incubation with a fluorescent dye taken up by viable cells (FIG. 6). Growth was decreased by 50% with isobutyramide at 1.0 mM, about 60% with arginine butyrate at 0.5 mM, and greater than 90% with arginine butyrate at 1.0 mM.

[1] = test system: γ-globin promoter (-61 construct, K562 cells); format: cell-based, human
Source text: Functional assay underscores the important role of FRE-γ1 in γ-globin gene expression in K562 cells. To ascertain whether the FRE elements of the γ-globin promoter that were identified by in vivo footprinting were indeed involved in arginine butyrate inducibility for γ-globin gene expression, a series of 5' deletion constructs of the γ-globin promoter, extending from -256 to -61, were constructed and linked them to the NEO gene. Activity of the NEO gene of these constructs, in response to arginine butyrate treatment, was examined by transfecting these reporters into K562 cells. In K562 cells, a construct driven by 256 bp of promoter was able to direct NEO activity expression, resulting in colony formation. […] Deletion to position -61 reduced promoter activity to 33-40% of the activity seen with the -256 bp construct.

[2] = test system: γ-globin promoter fragment containing FRE-γ1; experiment: Gel mobility shift assay with FRE-γ1 promoter fragment; set-up: species or system human
anemic baboon = experiment: In vivo reticulocyte proliferation, globin expression and blood counts in anemic (phlebotomized) baboons
Outline: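 Juvenile female baboons kept at 7.0–7.5 g/dl haemoglobin by daily phlebotomy got compounds sequentially, with wash-out until reticulocytes returned to baseline; each animal served as its own control. F-reticulocytes were measured by dual-antibody FACS, and γ/(γ+β) globin synthesis by ³H-leucine labelling and column chromatography. Blood counts were taken, unadjusted for phlebotomy.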

[3] = test system: fetal globin (gamma globin); experiment: Fetal globin expression in erythroid progenitor cells from cord blood; format: cell-based, human
Procedure: Compositions were tested for activity in inducing fetal globin expression and protein production in erythroid progenitor cells cultured from human cord blood and analyzed as described by S. P. Perrine et al. (Blood 74: 454-60, 1989). Briefly, mononuclear cells were cultured in IMDM with 30% fetal calf serum and 2 units erythropoietin per ml to induce erythroid differentiation. Colonies were harvested on day 12-13, incubated with radio-labelled (^3 H) leucine, and further incubated in leucine-free media, still in the presence of compounds, overnight. Globin composition in the erythroid cells was analyzed by laser densitometry of electrophoretically separated globin chains stained with Coomassie blue, and by autoradiography. Treated cells were incubated for 12-13 days (Table 2, Experiments A and B) or overnight (Table 2, Experiment C) in the presence of the indicated compounds and compared to untreated control cells cultured from the same human subject.

[4] = test system: BFU-e (burst forming unit-erythroid); experiment: BFU-e stimulation (colony growth) in cultured peripheral blood mononuclear cells; format: cell-based; settings: Homo sapiens, PBMC, read-out: more BFU-e colonies from the same number of mononuclear cells than control cultures
Procedure: Peripheral blood was collected from normal volunteers and patients with anemia due to sickle cell disease or thalassemia Mononuclear cells were isolated by Ficoll-Hypaque (Pharmacia Biotech; Piscataway, N.J.) centrifugation and cultured in Iscove's Modified Dulbecco's Media (IMDM; GIBCO/BRL; Grand Island, N.Y.) supplemented with 10% fetal calf serum, 300 μg/ml glutamine, 3 units/ml IL 3 (Amgen; Thousand Oaks, Calif.), and 2 units/ml erythropoietin (Terry Fox Labs; Vancouver, B.C.). Chemical compounds were obtained from Sigma Chemical (St. Louis, Mo.) or Aldrich Chemical (Milwaukee, Wis.), unless otherwise indicated, and formulated into pharmaceutical compositions by dissolving in aqueous solutions of media or sterile water pH adjusted to about 7.4. Solutions were sterilized by passage at least once through 0.22 micron Nalgene filters and added to cell cultures at final concentrations that are pharmaceutically achievable in vivo (typically between about 0.1 mM to 2.0 MM). Cells were incubated with compounds for between 13-14 days at 37° C. in humidified 5% CO2, and fed and passed, as necessary. Colony growth, proportion of fetal globin-expressing cells and amounts of fetal globin production were assayed. Results are presented in Table 1 as BFU-e stimulation (colony growth). […]

[5] = erythroblast nuclear extracts of thalassemic patients (FIG. 17)
[6] = 1,000 to 1,500 mg/kg/day i.v., 4 days

CCCC(=O)O [AB, arginine butyrate]
inhibition at 500 µM (MCF-7 cells; 0.5 mM): ~60% | inhibition at 1000 µM (MCF-7 cells; 1.0 mM): > 90% | induction of construct activity [1]: 2.5-4 fold | new binding activity (activator) [2, 5]: a new binding activity appeared | other binding activity (repressor) [2, 5]: disappeared | activator and repressor bands in non-responder ([2]; patient with sickle cell anemia who did not respond): no increase in the intensity of the activator band or loss of the repressor band | response to treatment (anemic baboon; 1,000 mg/kg for 5 days): had not responded | response to treatment (anemic baboon; 2,000 mg/kg for 3 days): had not responded

O=C(O)COc1ccccc1 [PAA, Phenoxyacetic acid]
Gamma/(Gamma + Beta) ([3]; Exp. A, 0.1 mM, 12-13 days, untreated 76.0%): 82.0% | Gamma/(Gamma + Beta) ([3]; Exp. B, 0.5 mM, 12-13 days, untreated 25.4%, 27.5%): 38.8% | Gamma/(Gamma + Beta) ([3]; Exp. C, 0.5 mM, overnight, untreated 52.0%): 55.6% | activation at 100 µM [4]: 135% | duration of effect after drug was discontinued (anemic baboon; 1,500 mg/kg infused daily, 5 days): maintained itself for two days after drug was discontinued and slowly declined thereafter | Total hemoglobin (anemic baboon; 1,500 mg/kg infused daily, 5 days (FIG. 7), from 6.8): 7.6 grams/dl | reticulocytes (anemic baboon; 1,500 mg/kg infused daily, 5 days, from 1.9%): 9.2 % of all red blood cells | white blood cell count (anemic baboon; 1,500 mg/kg infused daily, 5 days, from 6.9): 9.5 10^3 cells/μl | packed red blood cell volume (anemic baboon; 1,500 mg/kg infused daily, 5 days, from 22%): 25.4% | Fetal reticulocytes (anemic baboon; 500, 1,000, 1,500 mg/kg infused, after 3 days (FIG. 9), from 12%): 27% | Fetal reticulocytes, increase above baseline (anemic baboon; [6]): 800% | Fetal reticulocytes, increase above baseline (fold) (anemic baboon; [6]): eight-fold | increase in output of fetal globin production over basal levels (anemic baboon; [6]): 4,000% | Fetal reticulocytes (anemic baboon; 1,000 to 1,500 mg/kg/day i.v., 4 days, another juvenile baboon, from 2%): 16% | Fetal globin protein synthesis (anemic baboon; 1,000 to 1,500 mg/kg/day i.v., 4 days, from 0%): 5%
